# Measured values as given in patent US20190365776A1, “THERAPEUTIC AGENT FOR OCULAR FUNDUS DISEASE” (KYUSHU UNIVERSITY, NATIONAL UNIVERSITY CORPORATION, priority 2013, published 2019).
# Experiments:
# [1] = system: mice OIR (Oxygen-Induced Retinopathy) model; test: Mice OIR (oxygen-induced retinopathy) model, flat-mounted retina; type: in vivo, C57BL/6JJcl mice; conditions: 0.4% solution, ocular instillation 20 μL three times a day, day 12 to day 17 after birth, flat mount
# Experimental: The effectiveness of (S)-(−)-1-(4-fluoro-5-isoquinolinesulfonyl)-2-methyl-1,4-homopiperazine (compound 1) in a mice OIR model commonly used as a model of ischemic retinopathy such as diabetic retinopathy was examined in the following manner. Compound 1 solutions: 0.4% solution, 0.8% solution (instillation volume: 20 μL) Fasudil solution: 0.4% solution (instillation volume: 20 μL) Test animals: C57BL/6JJcl mice (sex: male, 8 to 14 mice per group) C57BL/6JJcl mice born on the same day were reared in a 75%-oxygen environment from day 7 after birth, and were then transferred to a normal indoor environment on day 12 after birth to start administration by ocular instillation. Test groups were a saline instillation group (control), a 0.4% compound 1 solution instillation group, a 0.8% compound 1 solution instillation group, and a 0.4% fasudil solution instillation group, and saline, the compound 1 solution, or the fasudil solution was administered by ocular instillation three times a day. On day 17 after birth, ischemic retinal areas (non-perfused areas) and neovascular areas were quantified for evaluation by flat-mounting or fluorescein fundus angiography. More specifically, 1 g/kg of pentobarbital (Nembutal) was administered intraperitoneally for euthanasia under deep anesthesia, and then both eyeballs were excised and fixed with 4% paraformaldehyde (PFA) at 37° C. for 1 hour, and the corneal limbus was circumferentially incised to remove the cornea and iris from the eyeball. Then, after fixation with 4% PFA at 37° C. for 1 hour, the lens, sclera, and choroid were removed, and the eye cup including the retina was isolated. Further, the retina was fixed with 4% PFA at 37° C. for 3 hours, washed with PBS three times (15 min per wash, 37° C.), dehydrated (methanol 50% 100%, 10 min per methanol treatment, 37° C.), washed with PBS three times (15 min per wash, 37° C.), and blocked with Blocking Buffer (1% BSA, 0.5% Triton-X in PBS) for 60 minutes (37° C.). Then, the retina was treated with a primary antibody (0.7% FITC-conjugates Anti-lectin Ab in PBS, 4° C., overnight) and washed with PBS three times (15 min per wash, 37° C.). Then, 4 to 6 cuts were radially made in the eye cup, and the flat-mounted retina was covered with Crystal Mount. Then, the image of the flat-mounted retina was taken with a fluorescence microscope (BZ-9000, KEYENCE Corp, Osaka, Japan), and the proportion of the non-perfused area to the entire retina and the proportion of the neovascular area to the entire retina were calculated by the following formulas in NIH image J software. The thus obtained values were converted to relative values by regarding the obtained values of the saline instillation group (control) as 100%, and statistical analysis was performed by Wilcoxon test. Non-perfused area=area of avascular region/area of entire retina Neovascular area=area of neovascular region/area of entire retina
# diabetic model rats = conditions: intravitreally administered; Non-Patent Documents 4 and 5; cited from earlier work
# [2] = system: VEGF-induced neovascularization; conditions: Non-Patent Documents 2 and 3; cited from earlier work
# [3] = system: model mice with hyperoxia-induced retinopathy; conditions: intravitreally administered; Non-Patent Document 6; cited from earlier work
SMILES,relative value of the neovascular area (saline instillation group = 100%) [1],relative value of the non-perfused area (saline instillation group = 100%) [1],effect on endothelial cells in diabetic model rats (diabetic model rats),effect on VEGF-induced neovascularization [2],effect on retinal neovascularization [3]
"O=S(=O)(c1cccc2cnccc12)N1CCCNCC1 [fasudil, reference compound]",102.2%,107.7%,effect of protecting endothelial cells,effect of inhibiting VEGF-induced neovascularization,–
C[C@@H](N)[C@H]1CC[C@H](C(=O)Nc2ccncc2)CC1 [Y-27632],–,–,–,effect of inhibiting VEGF-induced neovascularization,effect of suppressing retinal neovascularization
